Patent US20260124213A1, “STAPHYLOCOCCUS AUREUS PBP4 INHIBITORS AND METHOD OF USE” (UNIVERSITY OF ROCHESTER, priority 2022, published 2026)
≈ marks a conversion by molar mass, not a printed value. Where “and” joins values, the source holds several entries; their conditions need not be identical. Equal entries are not always repeated. Where two headings read alike, the source gives them in different places.

How the values were obtained:
COLnex = assay: MIC testing of antibiotics; type: cell-based; settings: Staphylococcus aureus, read-out: Minimum inhibitory concentration
Protocol: (§1) Bacterial Strains and Chemicals. The bacterial strains used in these studies include: USA300, USA300Δpbp4, USA300Δpbp4 pPBP4, COL, COLn, COLnex, CRB, and CRBΔpbp4. S. aureus strain USA300 is a predominant cause of U.S. community-associated MRSA infections, whereas strain COL is a commonly studied hospital-associated MRSA strain. The S. aureus USA300 pbp4-null strain (USA300Δpbp4) and PBP4 complementation strain (USA300Δpbp4 pPBP4) have been previously described. […] All strains were grown in Mueller Hinton (MH) broth at 37° C., as indicated.
(§2) Prioritized compounds were tested for their ability to reverse PBP4 mediated antibiotic resistance in another S. aureus background using three isogenic strains that became available during the study (generous gift from Dr. S. Chatterjee; University of Maryland). These strains included: 1) COLnex, which is a methicillin susceptible strain, 2) CRB, a methicillin/ceftobiprole resistant strain of COLnex that overproduces PBP4, and 3) CRBΔpbp4, a methicillin susceptible strain of CRB lacking the pbp4 gene.

CRBΔpbp4 = assay: MIC testing of antibiotics; type: cell-based; settings: Staphylococcus aureus, read-out: Minimum inhibitory concentration
Protocol: as §1, §2

USA300Δpbp4 pPBP4 = assay: microbe, parasite or virus in culture; type: cell-based; settings: Staphylococcus aureus, read-out: Minimum inhibitory concentration
CRB = assay: MIC testing of antibiotics; type: cell-based, Staphylococcus aureus; settings: for MIC: Staphylococcus aureus, read-out: Minimum inhibitory concentration, CRB
Protocol: as §1, §2

S. aureus strain USA300 = assay: microbe, parasite or virus in culture; type: cell-based, Staphylococcus aureus
Protocol: as §1
(§3) Prior to identifying new PBP4 inhibitors, a screening paradigm to identify existing molecules that reverse the antibiotic resistance profile of wild type cells to that of a pbp4 mutant was developed. To define screening conditions three strains were employed: 1) a wild type USA300 MRSA strain, 2) an isogenic pbp4 deletion strain, and 3) a complemented strain harboring a plasmid wildtype pbp4 copy. The antibiotic susceptibility profile of each strain was measured to determine the magnitude with which PBP4 affects resistance to various antibiotics (Table 1).

USA300Δpbp4 = assay: MIC testing of antibiotics; type: cell-based, Staphylococcus aureus; settings: for MIC: Staphylococcus aureus, read-out: Minimum inhibitory concentration
Protocol: as §1, §3

MRSA strain AH-1263 = assay: Broth microdilution antibiotic potentiation; type: cell-based, Staphylococcus aureus; settings: AH-1263; for MIC: Staphylococcus aureus, MRSA
Protocol: (§4) Broth Microdilution Method for Antibiotic Potentiation with MRSA Strains. Bacteria were cultured for 6 hours in CAMHB and sub-cultured to 5×10^5 CFU/mL in CAMHB. Subcultures were aliquoted (4 mL) into culture tubes and then inoculated with compound from 10 mM or 100 mM stock in DMSO to the desired concentration. […]. Bacteria treated with antibiotic alone served as the control. Samples from the secondary culture tubes were then aliquoted (200 μL) into the first row of wells of a 96-well microtiter plate. Rows 2-11 were filled (100 μL) with the remaining 4 mL of bacterial subculture containing the adjuvant. Row 12 was filled (100 μL) with uninoculated media. From row 1, 100 μL was transferred to row two and mixed 5-8 times before being transferred to row 3. This procedure was used to serial dilute the rest of the rows through 10. The microtiter plate was then covered in Press 'n Seal and incubated at 37° C.

[1] = tested on: MRSA strain ATCC BAA-1556; assay: Broth microdilution antibiotic potentiation; type: cell-based, Staphylococcus aureus; settings: ATCC BAA-1556; for MIC: Staphylococcus aureus
Protocol: as §4

MRSA strain AH-2204 = assay: Broth microdilution antibiotic potentiation; type: cell-based, Staphylococcus aureus; settings: Staphylococcus aureus, MRSA, AH-2204
Protocol: as §4

strain CRBΔpbp4 = assay: microbe, parasite or virus in culture; type: cell-based, Staphylococcus aureus; settings: Staphylococcus aureus, read-out: BPR (ceftobiprole) MIC, Alone
S. aureus strain CRB = assay: microbe, parasite or virus in culture; type: cell-based, Staphylococcus aureus; settings: Staphylococcus aureus, read-out: BPR (ceftobiprole) MIC, Alone
Protocol: Fractional Inhibitory Concentration Index (FICI). Fractional inhibitory testing was performed in checkerboard format to determine whether putative PBP4 inhibitors potentiated the antimicrobial effects of β-lactams toward S. aureus strains USA300 and CRB, as previously described (Chojacnki, et al. Journal of Antimicrobial Chemotherapy, 2003, 52, 1). To do so, in triplicate 10^5 CFU of each strain (10 μL) was added to individual wells of a microtiter plate containing 90 μL MH media. […] Plates were incubated at 37° C. for 16-20 hour and the lowest concentration of each test agent that inhibited bacterial growth alone or in combination was determined by the naked eye. The fractional inhibitory concentration (FIC) index was calculated using the formula: FIC of A (MIC of drug A in combination/MIC of drug A alone)+FIC B ([…]/MIC of drug B alone). A synergistic interaction was defined as a FICI value of less than 0.5, an additive interaction was defined as a FICI value between 0.5 and 1.0, an indifferent interaction was defined as a FICI value between 1.0 and 4.0, and an antagonistic interaction was defined as a FICI value of more than 4.0.

[2] = Staphylococcus aureus, USA300, read-out: Minimum inhibitory concentration
[3] = read-out: Cephalothin MIC, no compound (—)
[4] = read-out: Imipenem MIC, no compound (—)
[5] = read-out: Amoxicillin MIC, no compound (—)
[6] = read-out: Piperacillin MIC, no compound (—)
[7] = read-out: Cefotaxime MIC, no compound (—)

Molecule	MIC (COLnex) [mg/L]	MIC (CRBΔpbp4) [mg/L]	MIC (USA300Δpbp4 pPBP4) [mg/L]	MIC (CRB) [mg/L]	MIC (S. aureus strain USA300; [2]) [mg/L]	MIC (USA300Δpbp4) [mg/L]	other results
C/C(=C\C(=O)OCCCCCCCCC(=O)O)C[C@@H]1OC[C@H](C[C@@H]2O[C@H]2[C@@H](C)[C@H](C)O)[C@@H](O)[C@H]1O [MUP, mupirocin]	0.03 (≈ 0.0599 µM)	0.03 (≈ 0.0599 µM)	0.125 (≈ 0.25 µM)	0.03 (≈ 0.0599 µM)	0.125 (≈ 0.25 µM)	0.125 (≈ 0.25 µM)	–
CC(=O)OCC1=C(C(=O)O)N2C(=O)[C@@H](NC(=O)Cc3cccs3)[C@H]2SC1 [Cephalothin, cephalothin]	–	–	–	–	–	–	Cephalothin MIC, no compound (—) (MRSA strain AH-1263): 32 mg/L; MIC (MRSA strain AH-1263; [3]): 16 mg/L; Cephalothin MIC, no compound (—) [1]: 16 mg/L; MIC [1, 3]: 32 mg/L
C[C@@H](O)[C@H]1C(=O)N2C(C(=O)O)=C(S[C@@H]3CN[C@H](C(=O)N(C)C)C3)[C@H](C)[C@H]12 [MER, meropenem]	1 (≈ 2.61 µM)	1 (≈ 2.61 µM)	4 (≈ 10.4 µM)	64 (≈ 167 µM)	4 (≈ 10.4 µM)	2 (≈ 5.22 µM)	Minimum inhibitory concentration (S. aureus strain USA300; USA300): 4 mg/L (≈ 10.4 µM)
C[C@H]1COc2c(N3CCN(C)CC3)c(F)cc3c(=O)c(C(=O)O)cn1c23 [LEV, levofloxacin]	0.25 (≈ 0.692 µM)	0.25 (≈ 0.692 µM)	1 (≈ 2.77 µM)	0.5 (≈ 1.38 µM)	1 (≈ 2.77 µM)	0.5 (≈ 1.38 µM)	–
NC[C@H]1O[C@H](O[C@H]2[C@H](O)[C@@H](O[C@H]3O[C@H](CO)[C@@H](O)[C@H](N)[C@H]3O)[C@H](N)C[C@@H]2N)[C@H](N)C[C@@H]1O [TOB, tobramycin]	0.06 (≈ 0.128 µM)	0.06 (≈ 0.128 µM)	1 (≈ 2.14 µM)	0.06 (≈ 0.128 µM)	1 (≈ 2.14 µM)	1 (≈ 2.14 µM)	–
CN(C)c1ccc(O)c2c1C[C@H]1C[C@H]3[C@H](N(C)C)C(O)=C(C(N)=O)C(=O)[C@@]3(O)C(O)=C1C2=O [MIN, minocycline]	0.5 (≈ 1.09 µM)	0.5 (≈ 1.09 µM)	0.5 (≈ 1.09 µM)	0.5 (≈ 1.09 µM)	0.5 (≈ 1.09 µM)	0.5 (≈ 1.09 µM)	–
C[C@@H](O)[C@H]1C(=O)N2C(C(=O)O)=C(SCCN=CN)C[C@H]12 [Imipenem, imipenem]	–	–	–	–	–	–	MIC (MRSA strain AH-1263; [4]): 16 mg/L; MIC [1, 4]: 32 mg/L; MIC (MRSA strain AH-2204; [4]): 32 mg/L
colistin	–	–	–	–	–	–	Minimum inhibitory concentration (S. aureus strain USA300; USA300): 128 mg/L
CC1(C)S[C@@H]2[C@H](NC(=O)Cc3ccccc3)C(=O)N2[C@H]1C(=O)O [Penicillin G, penicillin G]	–	–	–	–	–	–	Penicillin G MIC, no compound (—) (MRSA strain AH-1263): 16 mg/L and 8 mg/L
Nc1nc(/C(=N/O)C(=O)N[C@@H]2C(=O)N3C(C(=O)O)=C(/C=C4\CCN([C@@H]5CCNC5)C4=O)CS[C@H]23)ns1 [BPR, ceftobiprole]	0.25 (≈ 0.468 µM)	0.25 (≈ 0.468 µM)	0.5 (≈ 0.935 µM)	128 (≈ 239 µM)	0.5 (≈ 0.935 µM)	0.25 (≈ 0.468 µM)	Minimum inhibitory concentration (CRB; CRB): >128 mg/L; MIC (strain CRBΔpbp4): 0.25 mg/L (≈ 0.468 µM); MIC (S. aureus strain CRB): 128 mg/L
CC1(C)S[C@@H]2[C@H](NC(=O)[C@H](N)c3ccc(O)cc3)C(=O)N2[C@H]1C(=O)O [Amoxicillin, amoxicillin]	–	–	–	–	–	–	Amoxicillin MIC, no compound (—) (MRSA strain AH-1263): 8 mg/L; MIC (MRSA strain AH-1263; [5]): 4 mg/L; MIC [1, 5]: 8 mg/L; MIC (MRSA strain AH-2204; [5]): 2 mg/L
CCN1CCN(C(=O)N[C@@H](C(=O)N[C@@H]2C(=O)N3[C@@H]2SC(C)(C)[C@@H]3C(=O)O)c2ccccc2)C(=O)C1=O [Piperacillin, piperacillin]	–	–	–	–	–	–	MIC (MRSA strain AH-1263; [6]): 16 mg/L; MIC [1, 6]: 16 mg/L; MIC (MRSA strain AH-2204; [6]): 4 mg/L
CCOc1ccc2ccccc2c1C(=O)N[C@@H]1C(=O)N2[C@@H]1SC(C)(C)[C@@H]2C(=O)O [NAF, nafcillin]	0.25 (≈ 0.603 µM)	0.25 (≈ 0.603 µM)	8 (≈ 19.3 µM)	> 128	8 (≈ 19.3 µM)	4 (≈ 9.65 µM)	Minimum inhibitory concentration (S. aureus strain USA300; USA300): 8 mg/L (≈ 19.3 µM)
CO/N=C(\C(=O)N[C@@H]1C(=O)N2C(C(=O)O)=C(COC(C)=O)CS[C@H]12)c1csc(N)n1 [Cefotaxime, cefotaxime]	–	–	–	–	–	–	Cefotaxime MIC, no compound (—) (MRSA strain AH-1263): 32 mg/L; MIC (MRSA strain AH-1263; [7]): 16 mg/L; Cefotaxime MIC, no compound (—) [1]: 32 mg/L; MIC [1, 7]: 16 mg/L
O=C(O)c1cn(C2CC2)c2cc(N3CCNCC3)c(F)cc2c1=O [CIP, ciprofloxacin]	0.25 (≈ 0.754 µM)	0.25 (≈ 0.754 µM)	–	0.5 (≈ 1.51 µM)	–	1 (≈ 3.02 µM)	MIC (S. aureus strain USA300; Staphylococcus aureus, USA300; read-out: Minimum inhibitory concentration): 4 mg/L (≈ 12.1 µM); Minimum inhibitory concentration (S. aureus strain USA300; USA300): 4 mg/L (≈ 12.1 µM); Minimum inhibitory concentration (USA300Δpbp4; USA300Δpbp4): 1 mg/L (≈ 3.02 µM)
